Assay results: patent US20250345446A1 (Draupnir Bio ApS, priority 2022, published 2025)

Molecular target: T1, soluble ectodomain of sortilin-6his (Homo sapiens, UniProt Q99523, V650M)
T1 construct: the soluble ectodomain of sortilin-6his is measured by microscale thermophoresis (MST)
Assay: MST binding to soluble ectodomain of sortilin-6his
Conditions: Table 4; small molecule bifunctional compounds; MST; read-out: KD score, binding to sortilin (Kd)
Experimental: At this point the plate was sealed with adhesive strip and placed on an Eppendorf thermomixer to shake at 600 rpm for 3 min before spinning on a Fisherbrand plate-spinner for 15 seconds and further incubation 1 hrs at 19° C. MST was measured on a Monolith NT. Automated (Nanotemper) in standard-treated capillaries at 5% LED-power and high MST-power. Dose-response was extracted from the raw thermographs at 20 sec hot-time and the dissociation constant was estimated by sigmoidal curve fitting in MO. Affinity analysis program (Nanotemper). All experiments were run in duplicates.

T1 sequence (Q99523 with tags, fused parts or gaps V650M): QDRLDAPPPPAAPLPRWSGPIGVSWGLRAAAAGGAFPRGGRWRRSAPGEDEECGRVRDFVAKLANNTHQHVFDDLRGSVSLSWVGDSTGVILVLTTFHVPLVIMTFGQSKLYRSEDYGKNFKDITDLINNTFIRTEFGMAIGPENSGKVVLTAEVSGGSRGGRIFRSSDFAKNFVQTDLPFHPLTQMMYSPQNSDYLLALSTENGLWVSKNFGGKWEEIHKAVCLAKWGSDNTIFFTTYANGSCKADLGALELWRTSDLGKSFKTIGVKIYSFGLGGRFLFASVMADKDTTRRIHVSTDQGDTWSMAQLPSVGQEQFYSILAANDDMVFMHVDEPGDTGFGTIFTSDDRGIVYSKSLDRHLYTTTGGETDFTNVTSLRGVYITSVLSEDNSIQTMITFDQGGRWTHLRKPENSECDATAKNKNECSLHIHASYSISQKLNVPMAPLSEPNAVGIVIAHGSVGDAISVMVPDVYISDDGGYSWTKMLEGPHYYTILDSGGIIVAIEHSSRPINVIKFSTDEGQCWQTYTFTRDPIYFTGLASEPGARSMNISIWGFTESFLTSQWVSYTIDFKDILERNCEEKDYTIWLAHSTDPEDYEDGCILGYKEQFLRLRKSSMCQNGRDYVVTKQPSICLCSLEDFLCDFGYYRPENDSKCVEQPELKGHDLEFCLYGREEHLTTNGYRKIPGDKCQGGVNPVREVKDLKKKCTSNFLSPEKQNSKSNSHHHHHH

Row | SMILES | Kd
1 | C[C@@H]1CN(c2ncc(-c3ccc4c(n3)N(Cc3cccnc3C#N)C(C)(C)C4=O)cn2)CCN1C(=O)CNC(=O)COCCOCCCCCCNC(=O)c1cccc(Oc2ccc(C(=O)N[C@@H](CCC(C)(C)C)C(=O)O)cn2)c1 | 1 to 10 nM
2 | CC(C)(C)CC[C@H](NC(=O)c1ccc(Oc2cccc(C(=O)NCCOCCOCCNc3ccc([N+](=O)[O-])cc3[N+](=O)[O-])c2)nc1)C(=O)O [BF001, (2S)-2-[[6-[3-[2-[2-[2-(2,4-dinitroanilino)ethoxy]ethoxy]ethylcarbamoyl]phenoxy]pyridine-3-carbonyl]amino]-5,5-dimethyl-hexanoic acid] | 1 to 10 nM
3 | CC(C)(C)CC[C@H](NC(=O)c1ccc(Oc2cccc(C(=O)NCCOCCOCCOCCNc3ccc([N+](=O)[O-])cc3[N+](=O)[O-])c2)nc1)C(=O)O [BF002, (2S)-2-[[6-[3-[2-[2-[2-[2-(2,4-dinitroanilino)ethoxy]ethoxy]ethoxy]ethyl-carbamoyl]phenoxy]pyridine-3-carbonyl]amino]-5,5-dimethyl-hexanoic acid] | 1 to 10 nM
4 | CC(C)(C)CC[C@H](NC(=O)c1ccc(Oc2cccc(C(=O)NCCOCCOCCOCCOCCNc3ccc([N+](=O)[O-])cc3[N+](=O)[O-])c2)nc1)C(=O)O [BF003, (2S)-2-[[6-[3-[2-[2-[2-[2-[2-(2,4-dinitroanilino)ethoxy]ethoxy]ethoxy]ethoxy]ethylcarbamoyl]phenoxy]pyridine-3-carbonyl]amino]-5,5-dimethyl-hexanoic acid] | 1 to 10 nM
5 | CC(C)(C)CC[C@H](NC(=O)c1ccc(Oc2cccc(OCCOCCOCCOCCNc3ccc([N+](=O)[O-])cc3[N+](=O)[O-])c2)nc1)C(=O)O [BF007, (2S)-2-[[6-[3-[2-[2-[2-[2-(2,4-dinitroanilino)ethoxy]ethoxy]ethoxy]ethoxy]phenoxy]pyridine-3-carbonyl]amino]-5,5-dimethyl-hexanoic acid] | 1 to 10 nM
6 | CC(C)(C)CC[C@H](NC(=O)c1ccc(Oc2cccc3c(C(=O)NCCCNC(=O)CCOCCOCCNc4ccc([N+](=O)[O-])cc4[N+](=O)[O-])cccc23)nc1)C(=O)O [BF009] | 1 to 10 nM
7 | CC(C)(C)CC[C@H](NC(=O)c1ccc(Oc2cccc(OCCOCCOCCOCCOCCOCCOCCOCCNc3ccc([N+](=O)[O-])cc3[N+](=O)[O-])c2)nc1)C(=O)O [BF012, (2S)-2-[[6-[3-[2-[2-[2-[2-[2-[2-[2-[2-(2,4-dinitroanilino)ethoxy]ethoxy]ethoxy]ethoxy]ethoxy]ethoxy]ethoxy]ethoxy]phenoxy]pyridine-3-carbonyl]amino]-5,5-dimethyl-hexanoic acid] | 1 to 10 nM
8 | CC(C)(C)CC[C@H](NC(=O)c1ccc(Oc2cccc(C(=O)NCCOCCOCCOCCNc3ncc(-c4ccc5c(n4)N(Cc4cccnc4C#N)C(C)(C)C5=O)cn3)c2)nc1)C(=O)O [BF030, (2S)-2-[[6-[3-[2-[2-[2-[2-[[5-[1-[(2-cyano-3-pyridyl)methyl]-2,2-dimethyl-3-oxo-pyrrolo[2,3-b]pyridin-6-yl]pyrimidin-2-yl]amino]ethoxy]ethoxy]ethoxy]ethylcarbamoyl]phenoxy]pyridine-3-carbonyl]amino]-5,5-dimethyl-hexanoic acid] | < 1 nM
9 | C[C@@H]1CN(c2ncc(-c3ccc4c(n3)N(Cc3cccnc3C#N)C(C)(C)C4=O)cn2)CCN1C(=O)COCCOCCOCCOCCNC(=O)c1cccc(Oc2ccc(C(=O)N[C@@H](CCC(C)(C)C)C(=O)O)cn2)c1 [BF031, (2S)-2-[[6-[3-[2-[2-[2-[2-[2-[(2R)-4-[5-[1-[(2-cyano-3-pyridyl)methyl]-2,2-dimethyl-3-oxo-pyrrolo[2,3-b]pyridin-6-yl]pyrimidin-2-yl]-2-methyl-piperazin-1-yl]-2-oxo-ethoxy]ethoxy]ethoxy]ethoxy]ethylcarbamoyl]phenoxy]pyridine-3-carbonyl]amino]-5,5-dimethyl-hexanoic acid] | 10 to 250 nM
